Structures can show the parent of a compound that is named as a salt.

T1 sequence (P31389 whole entry): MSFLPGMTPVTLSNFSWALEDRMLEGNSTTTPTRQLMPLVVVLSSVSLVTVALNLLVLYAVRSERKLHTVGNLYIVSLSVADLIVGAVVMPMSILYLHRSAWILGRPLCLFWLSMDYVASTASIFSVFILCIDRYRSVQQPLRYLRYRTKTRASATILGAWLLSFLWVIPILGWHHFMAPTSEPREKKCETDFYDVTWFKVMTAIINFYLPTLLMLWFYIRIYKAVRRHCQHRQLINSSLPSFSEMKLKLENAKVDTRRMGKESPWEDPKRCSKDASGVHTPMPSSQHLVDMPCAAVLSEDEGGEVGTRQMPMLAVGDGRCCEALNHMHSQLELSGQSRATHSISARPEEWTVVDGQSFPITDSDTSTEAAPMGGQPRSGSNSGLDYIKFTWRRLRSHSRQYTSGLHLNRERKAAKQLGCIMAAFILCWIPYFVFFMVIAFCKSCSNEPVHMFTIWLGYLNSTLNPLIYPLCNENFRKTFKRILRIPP

One assay addresses T1, H1 receptor (Cavia porcellus, UniProt P31389).
T1 construct: Strips of guinea pig ileum, 2 cm in length, were set up in an isolated organ bath; from tissue; host or cells: guinea pig ileum strips
Put plainly: guinea pig ileum screen (antagonism of histamine-induced contraction, pA2). It counts as cell-based. The following applies: isolated guinea pig ileum strips, histamine dose response, 20 minutes incubation; pA2 by the method of Schild (Schild plots). The procedure: It is based upon the phenomenon that histamine causes the contraction of guinea pig ileum. Antihistamine blocks this contraction. This test may be performed in the following manner:
Strips of guinea pig ileum, 2 cm in length, were set up in an isolated organ bath in tyrode's solution which had the following composition in […] (NaCl, 136.89; KCl, 2.68; CaCl2, 1.8; MgCl2, 1.05; NaH2 PO4, 0.42; NaHCO3, […] were measured isotonically (Grass FTO3C transducer coupled with silver springs) under one gram resting tension and recorded in a Grass polygraph recorder. Cumulative histamine dose response experiments were then performed before and after treatment of tissues with test compounds (20 minutes incubation). Dose ratios were determined graphically at ED50 response levels from the histamine dose response curves, and Schild plots (Arunlakshana, O. and Schild, H. O. Some quantitative uses of drug antagonists. Br. J. Pharmacol. Chemother. 14: 48-58, 1959) were constructed to determine the pA2 values using inverse regression line analysis (Finney, D. J. Statistical methods in biological assays. Hafner Press, New York, 1964). The pA2 is defined as the negative logarithm of the molar concentratrion of antagonist which would increase the ED50 value by […]. In some experiments, pA2 values were estimated according to the method described by van Rossum (Van Rossum, J. M., Cumulative dose-response curves: Technique for the making of dose-response curves in isolated organs and the evaluation of drug parameters. Arch. Int. Pharmacodyn. Ther. 143: 299-330, 1963) which uses the following relationship: pA2=-log ([B]/(dose ratio-1)), where [B] refers to the molar concentration of antagonists used. The test compounds were prepared in ethanol (0.1% v/v).
Regarding `COC(=O)COCCN1CCC(C(=O)c2nc3ccccc3n2Cc2ccc(F)cc2)CC1` [Example 2, 1-[[(4-Fluorophenyl)methyl]-1H-benzimidazol-2-yl][1-(carbomethoxymethoxyethyl)-4-piperidinyl]methanone], the antagonist equilibrium constant (Kb) (usually the equilibrium dissociation constant of an antagonist, usually derived from a functional assay) was 1.78 nM.
Molecule `O=C(CN1CCC(C(=O)c2nc3ccccc3n2Cc2ccc(F)cc2)CC1)Nc1nnn[nH]1` [Example 9, 1-[[(4-Fluorophenyl)methyl]-1H-benzimidazol-2-yl][1-(tetrazoleacetamide)-4-piperidinyl]methanone] showed a Kb of 2.4 nM.
In turn, `CN1CCC(C(=O)c2nc3ccccc3n2Cc2ccc(F)cc2)CC1` [Example 28, 1[[(4-Fluorophenyl)methyl]-1H-benzimidazol-2-yl][1-methyl-4-piperidinyl]methanone] showed an antagonist equilibrium constant (Kb) of 0.661 nM.
Take `CN1CCC(C(O)c2nc3ccccc3n2Cc2ccc(F)cc2)CC1` (centres unmarked) [Example 29, 1-[[(4-Fluorophenyl)methyl]-1H-benzimidazol-2-yl][1-methyl-4-piperidinyl]methanol]: the Kb is 2.34 nM.

Still in this assay, the particulars now being: isolated guinea pig ileum strips, histamine dose response, 20 minutes incubation; pA2 estimated by the method of Van Rossum.
As for `CCOCCn1c(C(=O)C2CCN(C(=O)OC(C)(C)C)CC2)nc2ccccc21` [Example 1 Step a, 1-[[(2-Ethoxy)ethyl]-1H-benzimidazol-2-yl][1-(t-butyloxycarbonyl)-4-piperidinyl]methanone], the Kb is 603 nM.
As for `CCOCCn1c(C(=O)C2CCN(CCc3ccc(OC)cc3)CC2)nc2ccccc21` [Example 1, 1-[[(2-Ethoxy)ethyl]-1H-benzimidazol-2-yl][1-[2-(4-methoxyphenyl)ethyl]-4-piperidinyl]methanone hydrochloride], the Kb is 0.407 nM.
Turning to `CC(C)(C)OC(=O)N1CCC(C(=O)c2nc3ccccc3n2Cc2ccc(F)cc2)CC1` [Example 2 Step a, 1-[[(4-Fluorophenyl)methyl]-1H-benzimidazol-2-yl][1-(t-butyloxycarbonyl)-4-piperidinyl]methanone], the Kb was greater than 100 nM.
For `O=C(O)CN1CCC(C(=O)c2nc3ccccc3n2Cc2ccc(F)cc2)CC1` [Example 4, 1-[[(4-Fluorophenyl)methyl]-1H-benzimidazol-2-yl][1-(carboxymethyl)-4-piperidinyl]methanone], the Kb is 2.34 nM.
Regarding `CCN(CC)C(=O)N1CCC(C(=O)c2nc3ccccc3n2Cc2ccc(F)cc2)CC1` [Example 6, 1-[[(4-Fluorophenyl)methyl]-1H-benzimidazol-2-yl][1-(N,N-diethylcarbamoyl)-4-piperidinyl]methanone], the “pA2 value in the guinea pig ileum screen” value is reported as 7.7.
`CC(=O)N1CCC(C(=O)c2nc3ccccc3n2Cc2ccc(F)cc2)CC1` [Example 7, 1-[[(4-Fluorophenyl)methyl]-1H-benzimidazol-2-yl-][1-(acetyl)-4-piperidinyl]methanone]: the Kb was greater than 100 nM.
Regarding `O=C(c1nc2ccccc2n1Cc1ccc(F)cc1)C1CCN(C(=O)C(F)(F)F)CC1` [Example 8, 1-[[(4-Fluorophenyl)methyl]-1H-benzimidazol-2-yl][1-(trifluoroacetyl)-4-piperidinyl]methanone], the Kb is 10.2 nM.

The values are drawn from patent publication US5380731A, “Antiallergic compounds” (Merrell Dow Pharmaceuticals Inc., priority 1993, dated 1995).
